This note sets out measurements from PubChem BioAssay (NCI).

Test systems include A549 NSCLC; K-562 leukemia; KM12 colon; OVCAR-4 ovarian; U251 CNS; 786-0 renal; SF-295 CNS; CAKI-1 renal; NCI/ADR-RES ovarian; MDA-MB-435.
Common to all, as to assay: NCI tumour cell line growth inhibition, 48 h

Values joined by “and” are separate entries in the source; they are usually repeats but may differ in a detail not shown here. Identical values can stand only once.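 Dose response: 5 concentrations. Exposure: 48 h. Format: 96-well plates. Endpoint: linear interpolation; highest concentration if not reached. Here, GI50 denotes the concentration required for 50% inhibition of growth. At the TGI there is no net growth.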

With `N#CC1(C#N)C2C=CC(c3coc4cccc2c34)C1(C#N)C#N` (configuration not stated), the TGI came out at 37.5 µM in the assay on A549 NSCLC; 6.22 µM in the assay with K-562 leukemia; 33.8 µM in the assay with KM12 colon; 47.9 µM in the assay on OVCAR-4 ovarian; 33.9 µM in the assay on U251 CNS; 34.8 µM with 786-0 renal. This compound also showed a TGI with SF-295 CNS of 42.8 µM.
Take `O=C(CCn1[nH]c(=O)c(Cl)c(Cl)c1=O)NNC(=O)C[n+]1ccccc1`: the TGI with A549 NSCLC, in the assay with K-562 leukemia, in the assay with KM12 colon, in the assay on OVCAR-4 ovarian, with 786-0 renal and in the assay with CAKI-1 renal was above 100 µM each time. Moreover, in the assay on SF-295 CNS, the TGI was above 100 µM.
Regarding `CCOC(=O)c1cnc2c(ccc3ncccc32)c1NCCCN(CC)CC`, the TGI in the assay with A549 NSCLC, in the assay with K-562 leukemia, in the assay on KM12 colon, with OVCAR-4 ovarian, in the assay on U251 CNS and with 786-0 renal was above 100 µM throughout. Also, the TGI in the assay on CAKI-1 renal and with SF-295 CNS was above 100 µM throughout.
On to `CCOC(=O)C(CC/C=C\c1ccccc1)N1CCC[C@H]1C(=O)OC` (some centres not stated), for which the TGI in the assay on A549 NSCLC, with K-562 leukemia, in the assay with KM12 colon, in the assay with OVCAR-4 ovarian, in the assay on U251 CNS and with 786-0 renal was above 100 µM in each case. For the same compound, the TGI in the assay on CAKI-1 renal and in the assay on SF-295 CNS was above 100 µM each time.
For the compound `CC(=O)O[C@@]1(C)[C@@H](C)C(=O)O[C@@H]2CCN3CC=C(COC(=O)[C@]1(C)O)[C@H]23`, the TGI with A549 NSCLC, in the assay on K-562 leukemia, in the assay with KM12 colon, in the assay on OVCAR-4 ovarian, in the assay with U251 CNS and in the assay with 786-0 renal was above 100 µM each time. Also, the TGI with CAKI-1 renal was above 100 µM.
On to `CC(C)(C)c1ccc(OCCOCCOc2ccc(C(C)(C)C)cc2S(=O)(=O)Nc2ccc([N+](=O)[O-])cc2)c(S(=O)(=O)Nc2ccc([N+](=O)[O-])cc2)c1`, for which the TGI in the assay on A549 NSCLC, with K-562 leukemia, in the assay with KM12 colon, in the assay on OVCAR-4 ovarian, in the assay on U251 CNS and in the assay with 786-0 renal was above 100 µM throughout. Also, the TGI in the assay with CAKI-1 renal and with SF-295 CNS was above 100 µM each time.
As for `CC1=C(O)/C(=C/C(C)CCC/C(C)=C/C=C/C(C)CCCc2ccoc2)OC1=O` (configuration not stated), the TGI with A549 NSCLC is 73.6 µM; in the assay on KM12 colon, above 100 µM; with OVCAR-4 ovarian, 85.3 µM; in the assay with U251 CNS, above 100 µM; in the assay on 786-0 renal it was 84.9 µM; in the assay with CAKI-1 renal it was above 100 µM. In the assay on SF-295 CNS, this compound showed a TGI of 81 µM.
`Cc1cccc2c1CCC21OC(=O)c2c1ccc1ccccc21` (configuration not stated): the TGI with A549 NSCLC was above 100 µM; in the assay with K-562 leukemia it was 66.7 µM; in the assay with KM12 colon, above 100 µM; in the assay with OVCAR-4 ovarian it was above 100 µM; in the assay with U251 CNS, above 100 µM; in the assay on 786-0 renal it was above 100 µM. Also, the TGI with CAKI-1 renal and in the assay with SF-295 CNS was above 100 µM throughout.
For the compound `COC(=O)C12OCC34C(CC5C(C)C6=CC(=O)OC6=CC5(C)C3C(O)C1O)OC(=O)C(O)C24` (configuration not stated), the GI50 is 0.415 µM in the assay on A549 NSCLC; 0.0468 µM with K-562 leukemia; 0.331 µM with KM12 colon; 0.155 µM in the assay on OVCAR-4 ovarian; 0.0446 µM with U251 CNS; 0.31 µM in the assay on 786-0 renal. The GI50 with SF-295 CNS was 0.351 µM. For the same compound, the TGI was 23.2 µM in the assay on A549 NSCLC; 6.94 µM in the assay with K-562 leukemia; 12.5 µM with KM12 colon; 5.66 µM in the assay on 786-0 renal; 30 µM in the assay with CAKI-1 renal; 0.956 µM and 6.03 µM in the assay on SF-295 CNS.
Consider `O=C1C=CC(=O)N1c1cccc(N2C(=O)C=CC2=O)c1`, for which the GI50 is 19.3 µM in the assay on A549 NSCLC; 2.38 µM in the assay on NCI/ADR-RES ovarian; 2.67 µM in the assay with K-562 leukemia; 8.33 µM with KM12 colon; 11.4 µM with U251 CNS; 1.84 µM in the assay with 786-0 renal. Further, the values for the GI50 with SF-295 CNS and with MDA-MB-435 were 21.2 µM and 3.85 µM, respectively. Moreover, the TGI in the assay on A549 NSCLC was 45.4 µM; in the assay on NCI/ADR-RES ovarian it was 6.14 µM; in the assay with K-562 leukemia, 7.7 µM; with KM12 colon, 22.7 µM; in the assay with U251 CNS, 25.2 µM; in the assay on 786-0 renal it was 3.44 µM. Also, the figures for the TGI in the assay on SF-295 CNS and in the assay with MDA-MB-435 were 44.5 µM and 16.2 µM, respectively.
For the compound `Cn1c(N)nc(=O)c2c1N(C1OC(CO)C(O)C1O)CN2Cc1ccccc1` (configuration not stated), the TGI with A549 NSCLC, with K-562 leukemia, in the assay with KM12 colon, in the assay on OVCAR-4 ovarian, in the assay with U251 CNS and in the assay on 786-0 renal was above 100 µM each time. The TGI in the assay with CAKI-1 renal and in the assay with SF-295 CNS was above 100 µM each time.
For `COc1ccc2c3c(c(C(=O)c4ccccc4)oc13)CCC2`, the TGI with A549 NSCLC, with K-562 leukemia, with OVCAR-4 ovarian, in the assay on U251 CNS, in the assay with 786-0 renal and in the assay on CAKI-1 renal was above 100 µM throughout. This compound also showed a TGI in the assay on SF-295 CNS above 100 µM.
Turning to `CCc1ccc(C(=Nc2ccc(N(C)C(=O)CN3CCN(C)CC3)cc2)c2c(O)[nH]c3ccc(C(=O)OC)cc23)cc1`, the GI50 in the assay on A549 NSCLC is 0.319 µM; with K-562 leukemia, 0.073 µM; with KM12 colon, 0.0387 µM; with OVCAR-4 ovarian it was 0.582 µM; in the assay on U251 CNS, 0.59 µM; with 786-0 renal, 0.404 µM. Further, the GI50 was 0.135 µM in the assay with CAKI-1 renal, 1.01 µM in the assay on SF-295 CNS and 0.532 µM in the assay with MDA-MB-435. The TGI came out at 1.64 µM in the assay with A549 NSCLC; 1.12 µM in the assay on K-562 leukemia; 1.4 µM in the assay with KM12 colon; 1.95 µM in the assay on OVCAR-4 ovarian; 2.02 µM in the assay with U251 CNS; 1.86 µM in the assay on 786-0 renal. The TGI in the assay on CAKI-1 renal was 1.48 µM; in the assay with SF-295 CNS, 2.4 µM; in the assay on MDA-MB-435 it was 1.9 µM.
With `COc1ccc2oc(C(=O)O)c3c2c1CCC3CCC(=O)O` (configuration not stated), the TGI in the assay with A549 NSCLC, in the assay with K-562 leukemia, in the assay with KM12 colon, with OVCAR-4 ovarian, in the assay with U251 CNS and in the assay on 786-0 renal was above 100 µM each time. In the assay on SF-295 CNS, this compound had a TGI above 100 µM.
Take `O=C(O/N=C1/CCC/C1=C\c1ccccc1)c1ccc(Cl)c(Cl)c1`: the TGI in the assay on A549 NSCLC, in the assay with K-562 leukemia, in the assay with KM12 colon, in the assay on OVCAR-4 ovarian, with U251 CNS and with 786-0 renal was above 100 µM throughout. The TGI in the assay with CAKI-1 renal and with SF-295 CNS was above 100 µM in each case.
`N#Cc1cc(S(=O)(=O)Nc2nnc(-c3ccccc3)c(-c3ccccc3)n2)c(SCc2ccccc2)cc1Cl`: the GI50 with A549 NSCLC was 22.2 µM; in the assay with K-562 leukemia, 27.2 µM; in the assay on KM12 colon, 19.2 µM; in the assay on OVCAR-4 ovarian it was 33.9 µM; in the assay with U251 CNS it was 17.8 µM; in the assay on 786-0 renal, 24.6 µM. Further, the GI50 with CAKI-1 renal is 21.3 µM; with SF-295 CNS, 24.8 µM; in the assay with MDA-MB-435, 21.2 µM. Moreover, the TGI was 40.7 µM in the assay on A549 NSCLC; above 100 µM with K-562 leukemia; 42.5 µM with KM12 colon; 87 µM in the assay on OVCAR-4 ovarian; 33.1 µM in the assay with U251 CNS; 64.1 µM in the assay with 786-0 renal. The TGI in the assay on CAKI-1 renal is 42.1 µM; in the assay with SF-295 CNS, 46.5 µM; in the assay with MDA-MB-435, 45.1 µM.
For `COc1cc(C2=N/C(=C/c3cccs3)C(=O)O2)cc(OC)c1OC`, the TGI with A549 NSCLC, in the assay on K-562 leukemia, in the assay with KM12 colon, with OVCAR-4 ovarian, in the assay with U251 CNS and in the assay with 786-0 renal was above 100 µM throughout. The TGI in the assay with CAKI-1 renal, in the assay on SF-295 CNS and in the assay with MDA-MB-435 was above 100 µM each time.
On to `CSc1snc2sc3c(Cl)nnnc3c12`, for which the TGI in the assay on A549 NSCLC stood at 33.9 µM; with K-562 leukemia it was 5.73 µM; in the assay on KM12 colon, 30 µM; with OVCAR-4 ovarian it was 29.5 µM; in the assay on U251 CNS, 28.6 µM; in the assay on 786-0 renal, 29.7 µM. The TGI in the assay on CAKI-1 renal came to 15.9 µM; in the assay with SF-295 CNS it was 32 µM.
For the compound `O=C(N/N=C1\C(=O)N(c2nccs2)C(=O)C(=O)C1c1nc2ccccc2s1)c1ccccc1O` (configuration not stated), the TGI in the assay on A549 NSCLC, in the assay with K-562 leukemia, in the assay on KM12 colon, in the assay with OVCAR-4 ovarian, in the assay with U251 CNS and with 786-0 renal was above 100 µM throughout. The TGI in the assay on CAKI-1 renal and in the assay with SF-295 CNS was above 100 µM each time.
As for `O=C(CC(=O)c1cccc2ccccc12)C(=O)NC1C2CC3CC(C2)CC1C3` (configuration not stated), the TGI in the assay on A549 NSCLC, in the assay with K-562 leukemia, with KM12 colon, in the assay with OVCAR-4 ovarian, in the assay with U251 CNS and with 786-0 renal was above 100 µM throughout. The TGI in the assay with CAKI-1 renal and with SF-295 CNS was above 100 µM throughout.
Regarding `O=NNc1ccc(Sc2ccc(NN=O)cn2)nc1`, the TGI in the assay with A549 NSCLC, in the assay with NCI/ADR-RES ovarian, with K-562 leukemia, in the assay with KM12 colon, with OVCAR-4 ovarian and in the assay with U251 CNS was above 100 µM each time. The TGI in the assay on 786-0 renal, with CAKI-1 renal and in the assay with SF-295 CNS was above 100 µM each time.
